± gives the expanded uncertainty stated by the source.
Assay: molar heat capacity at constant pressure
Details: Liquid

CC(C)CCCCCCCOC(=O)c1ccccc1C(=O)OCCCCCCCC(C)C
molar heat capacity at constant pressure [J/K/mol]
Details	Flow calorimetry	Numerical integration with Cp at 1 atm and U at elevated pressures
293.15 K, 100 kPa	754.86 ± 15	755.75 ± 15
293.15 K, 10000 kPa	–	754.86 ± 15
293.15 K, 20000 kPa	–	753.52 ± 15
293.15 K, 30000 kPa	–	753.07 ± 15
293.15 K, 40000 kPa	–	752.18 ± 15
293.15 K, 50000 kPa	–	751.73 ± 15
293.15 K, 60000 kPa	–	751.29 ± 15
293.15 K, 70000 kPa	–	750.84 ± 15
293.15 K, 80000 kPa	–	750.84 ± 15
293.15 K, 90000 kPa	–	750.39 ± 15
293.15 K, 100000 kPa	–	750.39 ± 15
293.15 K, 110000 kPa	–	749.95 ± 15
293.15 K, 120000 kPa	–	749.95 ± 15
293.15 K, 130000 kPa	–	749.95 ± 15
293.15 K, 140000 kPa	–	749.95 ± 15
303.15 K, 100 kPa	–	771.39 ± 16
303.15 K, 10000 kPa	–	770.05 ± 15
303.15 K, 20000 kPa	–	768.71 ± 15
303.15 K, 30000 kPa	–	767.81 ± 15
303.15 K, 40000 kPa	–	767.37 ± 15
303.15 K, 50000 kPa	–	766.92 ± 15
303.15 K, 60000 kPa	–	766.47 ± 15
303.15 K, 70000 kPa	–	766.03 ± 15
303.15 K, 80000 kPa	–	765.58 ± 15
303.15 K, 90000 kPa	–	765.58 ± 15
303.15 K, 100000 kPa	–	765.13 ± 15
303.15 K, 110000 kPa	–	765.13 ± 15
303.15 K, 120000 kPa	–	765.13 ± 15
303.15 K, 130000 kPa	–	765.13 ± 15
303.15 K, 140000 kPa	–	765.13 ± 15
313.15 K, 100 kPa	788.81 ± 16	786.57 ± 16
313.15 K, 10000 kPa	–	785.23 ± 16
313.15 K, 20000 kPa	–	784.34 ± 16
313.15 K, 30000 kPa	–	783.45 ± 16
313.15 K, 40000 kPa	–	782.55 ± 16
313.15 K, 50000 kPa	–	782.11 ± 16
313.15 K, 60000 kPa	–	781.66 ± 16
313.15 K, 70000 kPa	–	781.21 ± 16
313.15 K, 80000 kPa	–	781.21 ± 16
313.15 K, 90000 kPa	–	780.77 ± 16
313.15 K, 100000 kPa	–	780.77 ± 16
313.15 K, 110000 kPa	–	780.77 ± 16
313.15 K, 120000 kPa	–	780.77 ± 16
313.15 K, 130000 kPa	–	780.32 ± 16
313.15 K, 140000 kPa	–	780.32 ± 16
323.15 K, 100 kPa	–	802.65 ± 16
323.15 K, 10000 kPa	–	801.31 ± 16
323.15 K, 20000 kPa	–	799.97 ± 16
323.15 K, 30000 kPa	–	799.08 ± 16
323.15 K, 40000 kPa	–	798.63 ± 16
323.15 K, 50000 kPa	–	797.74 ± 16
323.15 K, 60000 kPa	–	797.29 ± 16
323.15 K, 70000 kPa	–	797.29 ± 16
323.15 K, 80000 kPa	–	796.85 ± 16
323.15 K, 90000 kPa	–	796.4 ± 16
323.15 K, 100000 kPa	–	796.4 ± 16
323.15 K, 110000 kPa	–	796.4 ± 16
323.15 K, 120000 kPa	–	796.4 ± 16
323.15 K, 130000 kPa	–	796.4 ± 16
323.15 K, 140000 kPa	–	796.4 ± 16
333.15 K, 100 kPa	816.5 ± 17	818.73 ± 17
333.15 K, 10000 kPa	–	817.39 ± 17
333.15 K, 20000 kPa	–	816.05 ± 17
333.15 K, 30000 kPa	–	815.16 ± 17
333.15 K, 40000 kPa	–	814.27 ± 16
333.15 K, 50000 kPa	–	813.82 ± 16
333.15 K, 60000 kPa	–	813.37 ± 16
333.15 K, 70000 kPa	–	812.93 ± 16
333.15 K, 80000 kPa	–	812.93 ± 16
333.15 K, 90000 kPa	–	812.48 ± 16
333.15 K, 100000 kPa	–	812.48 ± 16
333.15 K, 110000 kPa	–	812.48 ± 16
333.15 K, 120000 kPa	–	812.48 ± 16
333.15 K, 130000 kPa	–	812.48 ± 16
333.15 K, 140000 kPa	–	812.48 ± 16
343.15 K, 100 kPa	–	835.26 ± 17
343.15 K, 10000 kPa	–	833.92 ± 17
343.15 K, 20000 kPa	–	832.58 ± 17
343.15 K, 30000 kPa	–	831.69 ± 17
343.15 K, 40000 kPa	–	830.79 ± 17
343.15 K, 50000 kPa	–	830.35 ± 17
343.15 K, 60000 kPa	–	829.9 ± 17
343.15 K, 70000 kPa	–	829.45 ± 17
343.15 K, 80000 kPa	–	829.01 ± 17
343.15 K, 90000 kPa	–	829.01 ± 17
343.15 K, 100000 kPa	–	829.01 ± 17
343.15 K, 110000 kPa	–	829.01 ± 17
343.15 K, 120000 kPa	–	829.01 ± 17
343.15 K, 130000 kPa	–	828.56 ± 17
343.15 K, 140000 kPa	–	829.01 ± 17
353.15 K, 100 kPa	852.23 ± 17	852.23 ± 17
353.15 K, 10000 kPa	–	850.45 ± 17
353.15 K, 20000 kPa	–	849.11 ± 17
353.15 K, 30000 kPa	–	848.21 ± 17
353.15 K, 40000 kPa	–	847.32 ± 17
353.15 K, 50000 kPa	–	846.87 ± 17
353.15 K, 60000 kPa	–	846.43 ± 17
353.15 K, 70000 kPa	–	845.98 ± 17
353.15 K, 80000 kPa	–	845.98 ± 17
353.15 K, 90000 kPa	–	845.53 ± 17
353.15 K, 100000 kPa	–	845.53 ± 17
353.15 K, 110000 kPa	–	845.53 ± 17
353.15 K, 120000 kPa	–	845.53 ± 17
353.15 K, 130000 kPa	–	845.53 ± 17
353.15 K, 140000 kPa	–	845.53 ± 17
363.15 K, 100 kPa	–	869.21 ± 17
363.15 K, 10000 kPa	–	867.42 ± 17
363.15 K, 20000 kPa	–	866.08 ± 17
363.15 K, 30000 kPa	–	865.19 ± 17
363.15 K, 40000 kPa	–	864.29 ± 17
363.15 K, 50000 kPa	–	863.85 ± 17
363.15 K, 60000 kPa	–	863.4 ± 17
363.15 K, 70000 kPa	–	862.95 ± 17
363.15 K, 80000 kPa	–	862.95 ± 17
363.15 K, 90000 kPa	–	862.95 ± 17
363.15 K, 100000 kPa	–	862.51 ± 17
363.15 K, 110000 kPa	–	862.51 ± 17
363.15 K, 120000 kPa	–	862.51 ± 17
363.15 K, 130000 kPa	–	862.51 ± 17
363.15 K, 140000 kPa	–	862.51 ± 17
373.15 K, 100 kPa	893.77 ± 18	886.62 ± 18
373.15 K, 10000 kPa	–	884.84 ± 18
373.15 K, 20000 kPa	–	883.5 ± 18
373.15 K, 30000 kPa	–	882.6 ± 18
373.15 K, 40000 kPa	–	881.71 ± 17
373.15 K, 50000 kPa	–	881.26 ± 17
373.15 K, 60000 kPa	–	880.82 ± 17
373.15 K, 70000 kPa	–	880.37 ± 17
373.15 K, 80000 kPa	–	880.37 ± 17
373.15 K, 90000 kPa	–	879.93 ± 17
373.15 K, 100000 kPa	–	879.93 ± 17
373.15 K, 110000 kPa	–	879.93 ± 17
373.15 K, 120000 kPa	–	879.93 ± 17
373.15 K, 130000 kPa	–	879.93 ± 17
373.15 K, 140000 kPa	–	879.93 ± 17
383.15 K, 100 kPa	–	904.49 ± 18
383.15 K, 10000 kPa	–	902.7 ± 18
383.15 K, 20000 kPa	–	901.36 ± 18
383.15 K, 30000 kPa	–	900.02 ± 18
383.15 K, 40000 kPa	–	899.58 ± 18
383.15 K, 50000 kPa	–	898.68 ± 18
383.15 K, 60000 kPa	–	898.24 ± 18
383.15 K, 70000 kPa	–	898.24 ± 18
383.15 K, 80000 kPa	–	897.79 ± 18
383.15 K, 90000 kPa	–	897.79 ± 18
383.15 K, 100000 kPa	–	897.79 ± 18
383.15 K, 110000 kPa	–	897.79 ± 18
383.15 K, 120000 kPa	–	897.79 ± 18
383.15 K, 130000 kPa	–	897.79 ± 18
383.15 K, 140000 kPa	–	897.79 ± 18
393.15 K, 100 kPa	914.32 ± 18	922.8 ± 18
393.15 K, 10000 kPa	–	920.57 ± 18
393.15 K, 20000 kPa	–	919.23 ± 18
393.15 K, 30000 kPa	–	918.34 ± 18
393.15 K, 40000 kPa	–	917.44 ± 18
393.15 K, 50000 kPa	–	917 ± 18
393.15 K, 60000 kPa	–	916.55 ± 18
393.15 K, 70000 kPa	–	916.1 ± 18
393.15 K, 80000 kPa	–	916.1 ± 18
393.15 K, 90000 kPa	–	915.66 ± 18
393.15 K, 100000 kPa	–	915.66 ± 18
393.15 K, 110000 kPa	–	915.66 ± 18
393.15 K, 120000 kPa	–	915.66 ± 18
393.15 K, 130000 kPa	–	915.66 ± 18
393.15 K, 140000 kPa	–	916.1 ± 18
403.15 K, 100 kPa	–	941.12 ± 19
403.15 K, 10000 kPa	–	938.88 ± 19
403.15 K, 20000 kPa	–	937.54 ± 19
403.15 K, 30000 kPa	–	936.65 ± 19
403.15 K, 40000 kPa	–	935.76 ± 19
403.15 K, 50000 kPa	–	934.86 ± 19
403.15 K, 60000 kPa	–	934.86 ± 19
403.15 K, 70000 kPa	–	934.42 ± 19
403.15 K, 80000 kPa	–	934.42 ± 19
403.15 K, 90000 kPa	–	933.97 ± 19
403.15 K, 100000 kPa	–	933.97 ± 19
403.15 K, 110000 kPa	–	933.97 ± 19
403.15 K, 120000 kPa	–	933.97 ± 19
403.15 K, 130000 kPa	–	934.42 ± 19
403.15 K, 140000 kPa	–	934.42 ± 19
413.15 K, 100 kPa	–	959.88 ± 19
413.15 K, 10000 kPa	–	957.64 ± 19
413.15 K, 20000 kPa	–	956.3 ± 19
413.15 K, 30000 kPa	–	954.96 ± 19
413.15 K, 40000 kPa	–	954.07 ± 19
413.15 K, 50000 kPa	–	953.62 ± 19
413.15 K, 60000 kPa	–	953.18 ± 19
413.15 K, 70000 kPa	–	953.18 ± 19
413.15 K, 80000 kPa	–	952.73 ± 19
413.15 K, 90000 kPa	–	952.73 ± 19
413.15 K, 100000 kPa	–	952.73 ± 19
413.15 K, 110000 kPa	–	952.73 ± 19
413.15 K, 120000 kPa	–	952.73 ± 19
413.15 K, 130000 kPa	–	953.18 ± 19
413.15 K, 140000 kPa	–	953.18 ± 19
423.15 K, 100 kPa	981.32 ± 20	–

— the NIST ThermoML archive (doi:10.1016/j.jct.2009.12.002)
